Laboratory results as given in patent US7250258B2 (priority 2003, dated 2007).

Columns and labels:
AD patients [1] = conditions: galantamine therapy; cited from earlier work
[2] = tested on: Caucasian patients diagnosed with Alzheimer's Disease; experiment: Clinical association of CDK5 haplotype copy number with galantamine response (ΔADAS-cog responder vs non-responder, logistic regression); assay type: in vivo, human
Description: Following 3, 5, 6 or 12 months of treatment in the GAL-INT2, GAL-USA 10, GAL-INT-1 and SAB-USA-25 trials, respectively, the severity of symptoms in patients were evaluated using the cognitive subscale of the Alzheimer's Disease Assessment Scale (ADAS-cog) (Rosen et al., supra; Rockwood et al., supra; Tariot et al., supra; Wilcock et al., supra). The ADAS-cog measures cognitive function, including spoken language ability, comprehension of spoken language, recall of test instructions, word-finding difficulty in spontaneous speech, following commands, naming objects and fingers, constructional praxis, ideational praxis, orientation, word-recall task and word-recognition task (Alzheimer's Insights Online, supra).
For the clinical association study described in Example 2 below, 174 patients were selected and used to populate two groups in a tailed sampling strategy, intended to enrich alleles correlating with drug response in the population. […] Patients were assigned to responder and non-responder groups based on having a change in ADAS-cog score (ΔADAS-cog) that met a cut-off value that was chosen based on the differences in treatment times in the four clinical trials described above. The ΔADAS-cog cut-off values and treatment times used for each responder and non-responder group from each of the four clinical trials are shown in Table 6 below.
The statistical analyses compared ΔADAS-cog in patients with one copy vs. zero copies, two copies vs. zero copies, and two copies vs. one copy (within a patient's genome) of a particular allele, using a logistic regression analysis on two-degrees of freedom to associate clinical response with a particular haplotype. The following covariates were also included: age, gender, history, smoking, ADAS-cog baseline, dose (BID), body mass index, and CYP2D6. The logistic regression included assessment of associations between the haplotypes and the binary outcome of clinical response.
For the results obtained on the analyses, adjustments were made for multiple comparisons, using a permutation test (MULTIVARIATE PERMUTATION TESTS: WITH APPLICATIONS IN BIOSTATISTICS, Pesarin, John Wiley and Sons, New York, 2001). In this test, a sub-haplotype's data for each observation were kept constant, while all the remaining variables (outcome and covariates) were randomly permuted so that covariates always stayed with the same outcome. The permutation model was fitted for each of the several haplotypes, and the lowest p-value was kept. In total, 1000 permutations were done.

AD patients [3] = conditions: presence of the ApoE4 allele; cited from earlier work

## COc1ccc2c3c1O[C@H]1C[C@@H](O)C=C[C@@]31CCN(C)C2 [galantamine]
AD patients [1]
  most common side effects: nausea, vomiting, diarrhea, dizziness and anorexia
[2]; haplotype (1), 0 copies, of 41 subjects
  Subject Count for Haplotype with Highest Level Response: 26 (0)
[2]; haplotype (1), 1 copy, of 88 subjects
  Subject Count for Haplotype with Highest Level Response: 46 (1)
[2]; haplotype (1), 2 copies, of 45 subjects
  Subject Count for Haplotype with Highest Level Response: 13 (2)
[2]; haplotype (2), 0 copies, of 41 subjects
  Subject Count for Haplotype with Highest Level Response: 26 (0)
[2]; haplotype (2), 1 copy, of 88 subjects
  Subject Count for Haplotype with Highest Level Response: 46 (1)
[2]; haplotype (2), 2 copies, of 45 subjects
  Subject Count for Haplotype with Highest Level Response: 13 (2)

## Nc1c2c(nc3ccccc13)CCCC2 [tacrine]
AD patients [3]
  response to treatment in presence of ApoE4 polymorphism: reduced response to treatment
